Laboratory results published in patent publication US20130059362A1, “BIOSENSORS COMPRISING PROTEIN-BINDING DOMAINS AND FLUORESCENT PROTEINS” (SIGMA-ALDRICH CO., LLC, priority 2010, published 2013).

Test system: EGFR
Test: Ligand activation of EGFR monitored by relocalization of the 2×(SH2)Grb2 biosensor in live cells
Type: cell-based, human
Conditions: 100 ng/mL; much less than EGF
Experimental: The nucleic acid encoding TagGFP-2×(SH2)Grb2 was cloned into a lentiviral vector. Lentiviral particles were prepared and used to stably transfect A549 cells with the TagGFP:2×(SH2)Grb2 biosensor.
The cell nuclei were labeled with 1 μM DRAQ5.
A variety of other ligands were tested for their ability to activate EGFR, as monitored by the SH2 biosensor. […] Most of the ligands were tested for activity with the TagGFP:2×(SH2)Grb2 biosensor in live cells. […]

HGF: a growth factor that binds HGFR
Activity (relocalization of the SH2 biosensor): showed activity
